Converted amounts (≈) assume the structure as drawn.
Test system: G(−) bacterial strains
Experiment: Dilution antimicrobial susceptibility tests (MIC, NCCLS agar dilution / broth dilution)
Assay type: cell-based, Gram-negative organisms
Settings: unit assumed
Experimental: The MIC (minimum inhibitory concentration) was determined by the NCCLS (National Committee for Clinical Laboratory Standards) methods 2000. Methods for dilution antimicrobial susceptibility testing for bacteria that growth aerobically (M7-A5, vol. 20, No. 2). The agar dilution method for determining antimicrobial susceptibility was carried out using Mueller-Hinton agar. A final inoculum of 10^4 CFU/spot was applied with an inoculation device. Broth dilution tests were performed with 5×10^5 CFU/well in 96 well plates. The susceptibilities of streptococci were determined by Mueller-Hinton agar supplemented with 5% sheep blood. All assays were run with the indicated control strains, available from the ATCC (American Type Culture Collection, Rockville, Md.).
Abbreviations used in Table 1 are defined as follows: Cf-R: Ceftazidime Resistance, Ci-R: Ciprofloxacin Resistance, Gen-R: Gentamycin Resistance, Imp-R: Imipenem Resistance, Mp-R: Meropenem Resistance, Ofx-R: Ofloxacin Resistance, B+: β-lactamase Production, AmpC: AmpC-lactamase Hyper production, CBPase: Carbapenemase Production.

[1] = strain #1 Acinetobacter calcoaceticus
[2] = strain #2 Acinetobacter baumannii, Cf-R, Ci-R
[3] = strain #3 Acinetobacter baumannii, Cf-R, Ci-R, Mp-I
[4] = strain #4 Acinetobacter baumannii, Cf-R, Imp-I, CBPase
[5] = strain #7 Enterobacter aerogenes
[6] = strain #8 Enterobacter cloacae, Cf-R, B+
[7] = strain #9 Enterobacter cloacae, Cf-R
[8] = strain #10 Escherichia coli, Ci-R
[9] = strain #11 Escherichia coli, Ci-R, AmpC
[10] = strain #15 Klebsiella pneumoniae
[11] = strain #16 Moraxella catarrhalis
[12] = strain #21 Providencia rettgeri
[13] = strain #22 Salmonella typhimurium
[14] = strain #25 Shigella dysenteriae
[15] = strain #28 Stenotrophomonas maltophilia
[16] = strain #29 Pseudomonas aeruginosa
[17] = strain #30 Pseudomonas aeruginosa
[18] = strain #31 Pseudomonas aeruginosa, Ofx-R
[19] = strain #32 Pseudomonas aeruginosa, Cf-R
[20] = strain #33 Pseudomonas aeruginosa, Ci-R
[21] = strain #34 Pseudomonas aeruginosa, Gen-R
[22] = strain #35 Pseudomonas aeruginosa, Ip-R
[23] = strain #36 Pseudomonas aeruginosa, Cf-R, Ci-R, Mp-R

SMILES | MIC [1] | MIC [2] | MIC [3] | MIC [4] | MIC (strain #5 Citrobacter diversus) | MIC (strain #6 Citrobacter freundii) | MIC [5] | MIC [6] | MIC [7] | MIC [8] | MIC [9] | MIC (strain #12 Escherichia coli) | MIC (strain #13 Escherichia coli) | MIC (strain #14 Klebsiella oxytoca) | MIC [10] | MIC [11] | MIC (strain #17 Morganella Morganii) | MIC (strain #18 Morganella Morganii) | MIC (strain #19 Proteus vulgaris) | MIC (strain #20 Proteus mirabilis) | also measured
C[C@@H](O)C1C(=O)N2C(C(=O)O)=C(CN3CC[C@H](C(N)=O)C3)[C@H](C)C12 (stereo partly drawn) [Compound 12] | 0.5 µg/mL (≈ 1.48 µM) | 0.5 µg/mL (≈ 1.48 µM) | 2 µg/mL (≈ 5.93 µM) | 1 µg/mL (≈ 2.96 µM) | 0.13 µg/mL (≈ 0.385 µM) | 0.25 µg/mL (≈ 0.741 µM) | 1 µg/mL (≈ 2.96 µM) | 0.13 µg/mL (≈ 0.385 µM) | 0.25 µg/mL (≈ 0.741 µM) | 0.13 µg/mL (≈ 0.385 µM) | 0.13 µg/mL (≈ 0.385 µM) | 0.13 µg/mL (≈ 0.385 µM) | 0.25 µg/mL (≈ 0.741 µM) | 0.5 µg/mL (≈ 1.48 µM) | 0.5 µg/mL (≈ 1.48 µM) | ≤ 0.008 µg/mL | 2 µg/mL (≈ 5.93 µM) | 1 µg/mL (≈ 2.96 µM) | 0.5 µg/mL (≈ 1.48 µM) | 0.25 µg/mL (≈ 0.741 µM) | MIC [12]: 1 µg/mL (≈ 2.96 µM); MIC [13]: 0.25 µg/mL (≈ 0.741 µM); MIC (strain #23 Serratia marcescens): 0.5 µg/mL (≈ 1.48 µM); MIC (strain #24 Serratia marcescens): 1 µg/mL (≈ 2.96 µM); MIC [14]: 0.25 µg/mL (≈ 0.741 µM); MIC (strain #26 Shigella sonnei): 0.25 µg/mL (≈ 0.741 µM); MIC (strain #27 Shigella flexneri): 0.25 µg/mL (≈ 0.741 µM); MIC [15]: 0.25 µg/mL (≈ 0.741 µM); MIC [16]: 4 µg/mL (≈ 11.9 µM); MIC [17]: 4 µg/mL (≈ 11.9 µM); MIC [18]: 1 µg/mL (≈ 2.96 µM); MIC [19]: 4 µg/mL (≈ 11.9 µM); MIC [20]: 4 µg/mL (≈ 11.9 µM); MIC [21]: 4 µg/mL (≈ 11.9 µM); MIC [22]: 8 µg/mL (≈ 23.7 µM); MIC [23]: 32 µg/mL (≈ 94.8 µM)
C[C@@H](O)C1C(=O)N2C(C(=O)O)=C(CN3CC[C@H](C(=O)NS(N)(=O)=O)C3)[C@H](C)C12 (stereo partly drawn) [Compound 19] | 0.5 µg/mL (≈ 1.2 µM) | 0.5 µg/mL (≈ 1.2 µM) | 2 µg/mL (≈ 4.8 µM) | 1 µg/mL (≈ 2.4 µM) | 0.25 µg/mL (≈ 0.6 µM) | 0.25 µg/mL (≈ 0.6 µM) | 1 µg/mL (≈ 2.4 µM) | 0.25 µg/mL (≈ 0.6 µM) | 0.5 µg/mL (≈ 1.2 µM) | 0.25 µg/mL (≈ 0.6 µM) | 0.25 µg/mL (≈ 0.6 µM) | 0.25 µg/mL (≈ 0.6 µM) | 0.25 µg/mL (≈ 0.6 µM) | 0.5 µg/mL (≈ 1.2 µM) | 0.5 µg/mL (≈ 1.2 µM) | ≤ 0.008 µg/mL | 4 µg/mL (≈ 9.6 µM) | 2 µg/mL (≈ 4.8 µM) | 1 µg/mL (≈ 2.4 µM) | 0.25 µg/mL (≈ 0.6 µM) | MIC [12]: 1 µg/mL (≈ 2.4 µM); MIC [13]: 0.25 µg/mL (≈ 0.6 µM); MIC (strain #23 Serratia marcescens): 1 µg/mL (≈ 2.4 µM); MIC (strain #24 Serratia marcescens): 1 µg/mL (≈ 2.4 µM); MIC [14]: 0.25 µg/mL (≈ 0.6 µM); MIC (strain #26 Shigella sonnei): 0.25 µg/mL (≈ 0.6 µM); MIC (strain #27 Shigella flexneri): 0.25 µg/mL (≈ 0.6 µM); MIC [15]: 0.25 µg/mL (≈ 0.6 µM); MIC [16]: 4 µg/mL (≈ 9.6 µM); MIC [17]: 4 µg/mL (≈ 9.6 µM); MIC [18]: 1 µg/mL (≈ 2.4 µM); MIC [19]: 4 µg/mL (≈ 9.6 µM); MIC [20]: 4 µg/mL (≈ 9.6 µM); MIC [21]: 4 µg/mL (≈ 9.6 µM); MIC [22]: 8 µg/mL (≈ 19.2 µM); MIC [23]: 32 µg/mL (≈ 76.8 µM)
C[C@@H](O)C1C(=O)N2C(C(=O)O)=C(CN3CC[C@H](N)C3)[C@H](C)C12 (stereo partly drawn) [Compound 27] | 0.25 µg/mL (≈ 0.808 µM) | 0.5 µg/mL (≈ 1.62 µM) | 2 µg/mL (≈ 6.46 µM) | 1 µg/mL (≈ 3.23 µM) | 0.25 µg/mL (≈ 0.808 µM) | 0.25 µg/mL (≈ 0.808 µM) | 1 µg/mL (≈ 3.23 µM) | 0.25 µg/mL (≈ 0.808 µM) | 0.5 µg/mL (≈ 1.62 µM) | 0.25 µg/mL (≈ 0.808 µM) | 0.25 µg/mL (≈ 0.808 µM) | 0.25 µg/mL (≈ 0.808 µM) | 0.25 µg/mL (≈ 0.808 µM) | 0.5 µg/mL (≈ 1.62 µM) | 0.5 µg/mL (≈ 1.62 µM) | ≤ 0.008 µg/mL | 4 µg/mL (≈ 12.9 µM) | 2 µg/mL (≈ 6.46 µM) | 1 µg/mL (≈ 3.23 µM) | 0.25 µg/mL (≈ 0.808 µM) | MIC [12]: 1 µg/mL (≈ 3.23 µM); MIC [13]: 0.25 µg/mL (≈ 0.808 µM); MIC (strain #23 Serratia marcescens): 0.5 µg/mL (≈ 1.62 µM); MIC (strain #24 Serratia marcescens): 1 µg/mL (≈ 3.23 µM); MIC [14]: 0.5 µg/mL (≈ 1.62 µM); MIC (strain #26 Shigella sonnei): 0.25 µg/mL (≈ 0.808 µM); MIC (strain #27 Shigella flexneri): 0.13 µg/mL (≈ 0.42 µM); MIC [15]: 0.13 µg/mL (≈ 0.42 µM); MIC [16]: 2 µg/mL (≈ 6.46 µM); MIC [17]: 2 µg/mL (≈ 6.46 µM); MIC [18]: 0.5 µg/mL (≈ 1.62 µM); MIC [19]: 2 µg/mL (≈ 6.46 µM); MIC [20]: 2 µg/mL (≈ 6.46 µM); MIC [21]: 2 µg/mL (≈ 6.46 µM); MIC [22]: 4 µg/mL (≈ 12.9 µM); MIC [23]: 8 µg/mL (≈ 25.9 µM)
CC(=O)N[C@H]1CCN(CC2=C(C(=O)O)N3C(=O)C([C@@H](C)O)C3[C@H]2C)C1 (stereo partly drawn) [Compound 32] | 2 µg/mL (≈ 5.69 µM) | 2 µg/mL (≈ 5.69 µM) | 4 µg/mL (≈ 11.4 µM) | 2 µg/mL (≈ 5.69 µM) | 1 µg/mL (≈ 2.85 µM) | 1 µg/mL (≈ 2.85 µM) | 4 µg/mL (≈ 11.4 µM) | 1 µg/mL (≈ 2.85 µM) | 2 µg/mL (≈ 5.69 µM) | 1 µg/mL (≈ 2.85 µM) | 0.5 µg/mL (≈ 1.42 µM) | 1 µg/mL (≈ 2.85 µM) | 1 µg/mL (≈ 2.85 µM) | 2 µg/mL (≈ 5.69 µM) | 2 µg/mL (≈ 5.69 µM) | 0.016 µg/mL (≈ 0.0455 µM) | 8 µg/mL (≈ 22.8 µM) | 4 µg/mL (≈ 11.4 µM) | 4 µg/mL (≈ 11.4 µM) | 1 µg/mL (≈ 2.85 µM) | MIC [12]: 4 µg/mL (≈ 11.4 µM); MIC [13]: 1 µg/mL (≈ 2.85 µM); MIC (strain #23 Serratia marcescens): 2 µg/mL (≈ 5.69 µM); MIC (strain #24 Serratia marcescens): 2 µg/mL (≈ 5.69 µM); MIC [14]: 1 µg/mL (≈ 2.85 µM); MIC (strain #26 Shigella sonnei): 1 µg/mL (≈ 2.85 µM); MIC (strain #27 Shigella flexneri): 0.5 µg/mL (≈ 1.42 µM); MIC [15]: 1 µg/mL (≈ 2.85 µM); MIC [16]: 16 µg/mL (≈ 45.5 µM); MIC [17]: 16 µg/mL (≈ 45.5 µM); MIC [18]: 4 µg/mL (≈ 11.4 µM); MIC [19]: 16 µg/mL (≈ 45.5 µM); MIC [20]: 16 µg/mL (≈ 45.5 µM); MIC [21]: 16 µg/mL (≈ 45.5 µM); MIC [22]: 32 µg/mL (≈ 91.1 µM); MIC [23]: > 32 µg/mL

— patent US9937151B2, “Carbapenem antibacterials with gram-negative activity” (priority 2010, dated 2018)
